Test results from patent US10765114B2, “4-amino-6-(pyridyl and 2-substitutedphenyl)-picolinates and 6-amino-2-(pyridyl and 2-substitutedphenyl)-pyrimidine-4-carboxylates and their use as herbicides” (Dow AgroSciences LLC, priority 2013, dated 2020).
Read-outs that look alike come from different tables or passages of the source.

Tests used:
[1] = system: Key Broadleaf Weed and Crop Species; assay: Post-Emergent Test II (Table 5); format: in vivo; conditions: post-emergence, 336 h; for pest or weed control at 70 g/ha: application rate 70 (kg ai/ha; footnote: g ai/ha); for pest or weed control at 140 g/ha: application rate 140 (kg ai/ha; footnote: g ai/ha)
In short: (§1)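 Visual injury ratings (0 = no injury, 100 = complete kill) taken 14 days after treatment, relative to untreated controls. Compounds, in an acetone/DMSO aqueous carrier with crop oil and surfactant, were applied by track sprayer at 187 L/ha, in a twofold dilution series from the top rate, to plants at the first to second true-leaf stage.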

[2] = system: Key Grass and Sedge Weeds as well as Grass Crops; assay: Post-Emergent Test II (Table 6); format: in vivo; conditions: post-emergence, 336 h, 14 days after application; for pest or weed control at 70 g/ha: 70 g ai/ha; for pest or weed control at 140 g/ha: 140 g ai/ha
In short: as §1

[3] = Abutilon theophrasti, ABUTH: velvetleaf (Abutilon theophrasti), read-out: Visual Growth Reduction (%) 14 Days After Application ABUTH
[4] = Amaranthus retroflexus, AMARE: redroot pigweed (Amaranthus retroflexus), read-out: Visual Growth Reduction (%) 14 Days After Application AMARE
[5] = Brassica napus, BRSSS: oilseed rape, canola (Brassica napus), read-out: Visual Growth Reduction (%) 14 Days After Application BRSSS
[6] = Chenopodium album, CHEAL: lambsquarters (Chenopodium album), read-out: Visual Growth Reduction (%) 14 Days After Application CHEAL
[7] = Euphorbia heterophylla, EPHHL: wild poinsettia (Euphorbia heterophylla), read-out: Visual Growth Reduction (%) 14 Days After Application EPHHL
[8] = Helianthus annuus, HELAN: sunflower (Helianthus annuus), read-out: Visual Growth Reduction (%) 14 Days After Application HELAN
[9] = Viola tricolor, VIOTR: wild pansy (Viola tricolor), read-out: Visual Growth Reduction (%) 14 Days After Application VIOTR
[10] = CYPSS, read-out: Visual Growth Reduction (%) 14 Days After Application CYPSS
[11] = DIGSA: crabgrass (Digitaria sanguinalis), read-out: Visual Growth Reduction (%) 14 Days After Application DIGSA
[12] = ECHSS, read-out: Visual Growth Reduction (%) 14 Days After Application ECHSS
[13] = ORYSS (crop), read-out: Visual Growth Reduction (%) 14 Days After Application ORYSS
[14] = SETFA: giant foxtail (Setaria faberi), read-out: Visual Growth Reduction (%) 14 Days After Application SETFA
[15] = SORVU: grain sorghum (Sorghum vulgare), read-out: Visual Growth Reduction (%) 14 Days After Application SORVU
[16] = TRZSS (crop), read-out: Visual Growth Reduction (%) 14 Days After Application TRZSS
[17] = ZEAMX: maize, corn (Zea mays), read-out: Visual Growth Reduction (%) 14 Days After Application ZEAMX

Cc1c(-c2nc(C(=O)O)c(Cl)c(N)c2F)ccc(Cl)c1F [Compound 67]
85 to 94%: pest or weed control at 70 g/ha [1, 3] | pest or weed control at 140 g/ha [1, 3]
0 to 29%: pest or weed control at 70 g/ha [1, 7] | pest or weed control at 140 g/ha [1, 7] | pest or weed control at 70 g/ha [1, 9] | pest or weed control at 140 g/ha [1, 9] | pest or weed control at 70 g/ha [2, 10] | pest or weed control at 140 g/ha [2, 10] | pest or weed control at 70 g/ha [2, 11] | pest or weed control at 140 g/ha [2, 11] | pest or weed control at 70 g/ha [2, 12] | pest or weed control at 140 g/ha [2, 12] | pest or weed control at 70 g/ha [2, 13] | pest or weed control at 140 g/ha [2, 13] | pest or weed control at 70 g/ha [2, 14] | pest or weed control at 140 g/ha [2, 14] | pest or weed control at 70 g/ha [2, 15] | pest or weed control at 140 g/ha [2, 15] | pest or weed control at 70 g/ha [2, 16] | pest or weed control at 140 g/ha [2, 16] | pest or weed control at 70 g/ha [2, 17] | pest or weed control at 140 g/ha [2, 17]
95 to 100%: pest or weed control at 70 g/ha [1, 4] | pest or weed control at 140 g/ha [1, 4] | pest or weed control at 70 g/ha [1, 5] | pest or weed control at 140 g/ha [1, 5] | pest or weed control at 70 g/ha [1, 6] | pest or weed control at 140 g/ha [1, 6] | pest or weed control at 70 g/ha [1, 8] | pest or weed control at 140 g/ha [1, 8]
